Experimental data published in patent publication US9643976B2, “Solvates of darunavir” (Aurobindo Pharma Ltd., priority 2012, dated 2017).

Columns and labels:
[1] = hygroscopicity at moderate or high relative humidity at 25° C.; assay type: physicochemical
Excerpt: Further, the isolation of Darunavir ethanolate involves special precautions during isolation, drying and powder processing, which is onerous during the large scale manufacturing of Darunavir ethanolate.

[2] = hygroscopic testing (solvent content before and after); details: for Final (Solvent content): after hygroscopic testing at 25° C.±2° C. and 80% RH±2° C. for 24 h, solvent replaced with water; for Initial (Solvent content): before hygroscopic testing

For `CC(C)CN(C[C@@H](O)[C@H](Cc1ccccc1)NC(=O)O[C@H]1CO[C@H]2OCC[C@H]21)S(=O)(=O)c1ccc(N)cc1` [Darunavir ethanolate], the “hygroscopicity / conversion to hydrate” value [1] was “hygroscopic and converts to Darunavir hydrate”, the “Final (Solvent content)” value [2] was 0.67% and the “Initial (Solvent content)” value [2] was 6.75%.

For `CC(C)CN(C[C@@H](O)[C@H](Cc1ccccc1)NC(=O)O[C@H]1CO[C@H]2OCC[C@H]21)S(=O)(=O)c1ccc(N)cc1` [Darunavir propylene glycolate], the “Final (Solvent content)” value [2] was 10.37% and the “Initial (Solvent content)” value [2] was 11.51%.
